Reference: US20060100168A1, “Method of treating cancer using adenosine and its analogs” (The Trustee of Boston University, priority 2002, published 2006)
Entries after “also recorded” stand apart in the source; their conditions may differ.

Legend:
[1] = tested on: MCF-7 cells; assay: Anchorage-dependent growth assay (viable cell count, Trypan Blue); type: cell-based, human; conditions: for Cell Growth / Effect on MCF-7 cell growth, in words: MCF-7; for Cell Growth: 2 days of treatment, compounds at 100 μM, except adenosine (500 μM) and inosine (1 mM), normalized to vehicle control (set to 1), negative = decrease vs count before treatment, average ± SD, three experiments; for Effect on MCF-7 cell growth, in words: summary of Table 1 and discussion
Experimental: Anchorage-dependent growth assay: Cells were plated into 6-well plates and grown overnight before treatments. The seeding concentration of MCF-7 cells was 2×10^5/well, which was determined during preliminary experiments as not allowing the cells to reach confluency within 3 days. Cells were treated either with vehicle or ligands, as indicated. Cells were detached by incubation with trypsin (Invitrogen, Carlsbad, Calif.) and counted with a hemacytometer before or after treatment.

[2] = tested on: MCF-7 cells; assay: Apoptosis by propidium iodide staining and flow cytometry (sub-diploid events); type: cell-based, human; conditions: 100 μM; for Apoptosis, in words: two days; for Apoptosis: 2 days of treatment, except adenosine (500 μM) and inosine (1 mM), number of apoptotic cells compared to vehicle control (set to 1), average ± SD
Experimental: (§1) Flow Cytometry and Apoptosis Analysis: Cells were detached from tissue culture plates by trypsin treatment. Cells were collected by centrifugation at 1200 g for 5 minutes and washed once with PBS. Staining of cells with propidium iodide and analysis on a flow cytometer (FACScan, Becton Dickinson, Research Triangle Park, N.C.) was performed as described before (42). Data were analyzed with CellQuest software (Becton Dickinson, Research Triangle Park, N.C.). The percentage of cells appearing with a ploidy level smaller than a diploid content was calculated as an estimate of cells undergoing apoptosis.

[3] = tested on: primary rat bone marrow cells; assay: Thymidine incorporation assay; type: cell-based; conditions: 24 hours, IB-MECA at 100 μM
Experimental: (§2) Thymidine Incorporation Assay. Thymidine incorporation assays were performed as described (Zhang, Y., Wang, Z., and Ravid, K. The cell cycle in polyploid megakaryocytes is associated with reduced activity of cyclin B1-dependent cdc2 kinase. J Biol Chem, 271: 4266-4272, 1996) with modifications. Rat bone marrow cells were cultured in 25 cm^2 flasks at a concentration of 20×10^6 cells per 2 ml. After drug treatment for 24 hours, cells were incubated with ^3H-thymidine at a final concentration of 3 μCi/ml for 8 hours. For MCF-7 cells, cells were cultured in 6-well plates and incubated with ^3H-thymidine for 2 hours after drug treatment. Cells were divided into two portions, sixty percent of which were processed as described (Id.) to obtain tritium counts. The rest of the cells were lysed with Western blotting lysis buffer and protein concentrations were determined by Bio-Rad protein assay reagent (Bio-Rad, Hercules, Calif.). Tritium counts were normalized with corresponding protein concentrations to account for cell number variations.

[4] = tested on: MCF-7 cells; assay: Cell cycle analysis by flow cytometry; type: cell-based, human; conditions: 100 μM, except adenosine (500 μM) and inosine (1 mM); for Percentage change of diploid (G0 or G1 phase) population compared to vehicle-treated cells: first number in parentheses; for Percentage change of S phase population compared to vehicle-treated cells: second number in parentheses; for Percentage change of tetraploid (G2 or M phase) population compared to vehicle-treated cells: third number in parentheses
Experimental: as §1

[5] = tested on: MCF-7 cells; assay: Thymidine incorporation assay; type: cell-based, human; conditions: treated 24 hours before thymidine
Experimental: as §2

[6] = tested on: estrogen receptor α (ERα); assay: ERα protein level by Western blot in MCF-7 cells; type: cell-based, human; conditions: for ERα Level: 12 hours, 100 μM, except adenosine (500 μM), Western blot quantitated, vehicle control set to 1, average of two experiments; for ERα protein level, in words: Western blot
Experimental: Western Blot Analysis: Cells were washed three times in cold 1×PBS, and collected by scraping on ice. Western blot analysis was performed as we described before with the chemiluminescence method (41). […] Cyclin A, cyclin B1 and p27 antibodies were used at 1:500 dilutions. Cyclin E antibody was used at 1:1000 dilutions.

[7] = tested on: MCF-7 cells; assay: Anchorage-independent growth (soft agar) assay; type: cell-based, human; conditions: for Effect on anchorage-independent growth (colony formation), in words: different concentrations
Experimental: Anchorage-independent growth (soft agar) assay: Soft agar assay was performed as described (40) with the following modifications. Ligands were added into the bottom and top agar before plating into 6-well plates. Cells were treated with trypsin (Invitrogen, Carlsbad, Calif.) for 5 minutes in a 37° C. incubator and pipetted several times so that most cells were in single cell forms. Cells were counted with a hemacytometer (Hausser Scientific/VWR, So. Plainfield, N.J.), and 10,000 cells were mixed with top agar and plated into each well. After the top agar had solidified, two ml of medium containing the same treatment was added on top of the agar. This covering medium was changed every two days during culture. After two weeks of culture, each well was counted for the number of colonies formed on an Olympus IX70 microscope under 40× optical amplification. A cell colony was defined as any cluster of cells that contain more than 3 cells. The average of counts from 3 random optical fields for each well was taken as the colony number and analyzed. Each treatment was performed in triplicates. The averages and standard deviations shown in the figures were calculated based on triplicate experiments.

| SMILES | Cell Growth [1] | Effect on MCF-7 cell growth, in words ([1]; listed as 2-chloror-deoxyadenosine) | Apoptosis, in words [2] | Apoptosis [2] | Thymidine incorporation reduced to [3] [%] | Percentage change of diploid (G0 or G1 phase) population compared to vehicle-treated cells [4] [%] | Percentage change of S phase population compared to vehicle-treated cells [4] [%] | Percentage change of tetraploid (G2 or M phase) population compared to vehicle-treated cells [4] [%] | Thymidine incorporation decreased to [5] [%] | Effect on MCF-7 cell growth, in words [1] | ERα Level [6] | ERα protein level, in words [6] | Effect on anchorage-independent growth (colony formation), in words ([7]; MCF-7 soft agar, two weeks) | Cell Cycle Arrest (position of arrest) ([4]; flow cytometry) | Effect of A3AR antagonist on IB-MECA inhibitory effect on growth ([7]; MCF-7, antagonist up to 1 μM, not shown) | inhibition at 1000 µM ([7]; Homo sapiens, MCF7, 336 h, MCF-7 soft agar, 1 mM, two weeks, read-out: Inhibition of colony-forming ability) [%] | Effect of nucleoside transporter inhibitor on growth inhibitory effect of IB-MECA ([1]; 10 μM) | Effect on cell growth by itself ([1]; at higher concentrations than 10 μM) |
| --- | --- | --- | --- | --- | --- | --- | --- | --- | --- | --- | --- | --- | --- | --- | --- | --- | --- | --- |
| Nc1nc(Cl)nc2c1ncn2[C@H]1C[C@H](O)[C@@H](CO)O1 [CdA, 2-chloro-2′-deoxyadenosine] | 0.13 ± 0.01 | significantly inhibited; also recorded: as effective at 1 μM (not shown) as at 100 μM | induced cellular apoptosis | 1.80 ± 0.17 | 32 | −69 | 165 | 20 | 43 | – | – | – | – | – | – | – | – | – |
| Nc1ncnc2c1ncn2[C@@H]1O[C@H](CO)C[C@H]1O [Cordycepin, 3′-deoxyadenosine] | 0.24 ± 6 | – | without inducing apoptosis | 0.43 ± 0.07 | – | −26 | 10 | 62 | – | significantly inhibited cell growth | 0.58 | significantly inhibited cell growth and ERα levels | – | – | – | – | – | – |
| CCNC(=O)[C@H]1O[C@@H](n2cnc3c(N)ncnc32)[C@H](O)[C@@H]1O [NECA, 5′-(N-Ethylcarboxamido)adenosine] | 0.90 ± 0.16 | – | – | 0.99 ± 0.05 | – | 0 | 3 | −3 | – | no significant effect on cell growth; also recorded: did not have a significant effect | 0.92 | no significant change | did not inhibit | Not Detectable | – | – | – | – |
| CCOC(=O)C1=C(C)NC(c2ccccc2)=C(C(=O)OCc2ccccc2)C1C#Cc1ccccc1 (centres unmarked) [MRS1191] | – | – | – | – | – | – | – | – | – | – | – | – | – | – | did not abolish | – | – | – |
| CCNC(=O)[C@H]1O[C@@H](n2cnc3c(N)nc(NCCc4ccc(CCC(=O)O)cc4)nc32)[C@H](O)[C@@H]1O [CGS21680, 2-p-(2-Carboxyethyl)phenethylamino-5′-N-ethylcarboxamidoadenosine] | – | – | – | – | – | – | – | – | – | did not have a significant effect | – | – | did not inhibit | – | – | – | – | – |
| Nc1nc(Cl)nc2c1ncn2[C@@H]1O[C@H](CO)[C@@H](O)[C@H]1O [CADO, 2-chloro-adenosine] | −0.02 ± 0.02 | – | without inducing apoptosis | 0.84 ± 0.6 | – | −11 | 11 | 20 | – | significantly inhibited cell growth | 0.41 | significantly inhibited cell growth and ERα levels | – | – | – | – | – | – |
| Nc1ncnc2c1ncn2[C@@H]1O[C@H](CO)[C@@H](O)[C@H]1O [Adenosine] | 0.49 ± 0.04 | – | – | 1.06 ± 0.17 | – | −25 | −56 | 97 | – | – | 1.07 | – | dose-dependent inhibition of colony formation | – | – | ~50 | – | – |
| OC[C@H]1O[C@@H](n2cnc3c(NC4CCCC4)nc(Cl)nc32)[C@H](O)[C@@H]1O [CCPA, 2-Chloro-N^6-cyclopentyladenosine] | 0.79 ± 0.16 | – | – | 0.49 ± 0.12 | – | 3 | −18 | 11 | – | no significant effect on cell growth; also recorded: did not have a significant effect | 1.16 | – | did not inhibit | – | – | – | – | – |
| OCCN(CCO)c1nc(N2CCCCC2)c2nc(N(CCO)CCO)nc(N3CCCCC3)c2n1 [dipyridamole] | – | – | – | – | – | – | – | – | – | – | – | – | – | – | – | – | did not prevent the growth inhibitory effect of IB-MECA | inhibitory effect on cell growth |
| OC[C@H]1O[C@@H](n2cnc3c(O)ncnc32)[C@H](O)[C@@H]1O [Inosine] | 0.90 ± 0.12 | – | – | 1.02 ± 0.14 | – | −24 | 43 | 8 | – | no significant effect on cell growth | – | – | No effect | – | – | – | – | – |
